According to patent US11214594B2, “Antimicrobial peptide having synergistic antibacterial effect with antibiotics on multidrug resistant bacteria, and use thereof” (priority 2016, dated 2022):
Converted amounts (≈) assume the structure as drawn. Where a SMILES comes first, the peptide text is derived from it. [ ]: non-standard residue; d: D form.

What was measured:
E. coli [1] = experiment: MIC of antibiotic during combined treatment with antimicrobial peptide; assay type: cell-based, Escherichia coli; settings: for Antibiotic MIC, Erythromycin / Antibiotic MIC, Linezolid / Antibiotic MIC, Vancomycin: E. coli
Summary of the method: (§1)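 Antibiotic diluted in MH medium, dispensed per well with peptide; setup repeated with roles reversed; MIC read per combination.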

B. subtilis = experiment: microbe, parasite or virus in culture; assay type: cell-based, Bacillus subtilis
Summary of the method: (§2)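 Broth microdilution in MH medium: strains diluted to 2×10^6 CFU were mixed with equal volumes of twofold serial peptide dilutions in MH medium. MIC was taken as the lowest peptide concentration preventing bacterial growth.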

S. epidermidis = experiment: microbe, parasite or virus in culture; assay type: cell-based, Staphylococcus epidermidis
Summary of the method: as §2

MRSA 3114 = assay type: cell-based, Staphylococcus aureus; settings: 3114
Summary of the method: as §2

MRSA 3126 = assay type: cell-based, Staphylococcus aureus; settings: 3126
Summary of the method: as §2

S. aureus = experiment: microbe, parasite or virus in culture; assay type: cell-based, Staphylococcus aureus
Summary of the method: as §2

P. aeruginosa = experiment: microbe, parasite or virus in culture; assay type: cell-based, Pseudomonas aeruginosa
Summary of the method: as §2

MDREC 1229 [2] = experiment: microbe, parasite or virus in culture; assay type: cell-based, Escherichia coli
Summary of the method: as §2

E. coli [3] = experiment: microbe, parasite or virus in culture; assay type: cell-based, Escherichia coli; settings: 16 h
Summary of the method: as §2

MDRPA 2003 = assay type: cell-based, Pseudomonas aeruginosa
Summary of the method: as §2

MDRPA 2002 = assay type: cell-based, Pseudomonas aeruginosa
Summary of the method: as §2

MDRAB 12035 = experiment: MIC of antibiotic during combined treatment with antimicrobial peptide; assay type: cell-based, Acinetobacter baumannii
Summary of the method: (§3)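 Antibiotic MIC came from antibiotic dilutions added to bacteria (2×10^6 CFU/ml, MH medium) already combined with peptide serially diluted 2:1 from its own MIC. Swapping the roles of the two agents gave the peptide MIC.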

MDREC 1238 = assay type: cell-based, Escherichia coli
Summary of the method: as §2

MDRST 8007 = experiment: Minimal inhibitory concentration (MIC), single agent; assay type: cell-based, Salmonella typhimurium; settings: agent alone
Summary of the method: as §2

MDREC 1229 [4] = experiment: MIC of antibiotic during combined treatment with antimicrobial peptide; assay type: cell-based, Escherichia coli
Summary of the method: as §3

A. baumannii = experiment: as above; assay type: cell-based, Acinetobacter baumannii; settings: for Antibiotic MIC, Erythromycin / Antibiotic MIC, Linezolid / Antibiotic MIC, Vancomycin: A. baumannii
Summary of the method: as §1

[5] = peptide treatment concentration 1 μg/ml
[6] = peptide treatment concentration 2 μg/ml
[7] = peptide treatment concentration 4 μg/ml
[8] = peptide treatment concentration 6 μg/ml
[9] = peptide treatment concentration 8 μg/ml
[10] = peptide treatment concentration 16 μg/ml
[11] = peptide treatment concentration 32 μg/ml
[12] = peptide treatment concentration 64 μg/ml
[13] = combined with peptide at 1 μg/ml
[14] = combined with peptide at 2 μg/ml
[15] = combined with peptide at 4 μg/ml
[16] = combined with peptide at 6 μg/ml
[17] = combined with peptide at 8 μg/ml
[18] = combined with peptide at 16 μg/ml
[19] = combined with peptide at 32 μg/ml
[20] = combined with peptide at 64 μg/ml

CC[C@H](C)[C@H](NC(=O)[C@H](CCCCN)NC(=O)[C@H](Cc1c[nH]c2ccccc12)NC(=O)[C@@H](N)CCCNC(=N)N)C(=O)N[C@@H](Cc1ccccc1)C(=O)N[C@@H](CCCCN)C(=O)N[C@@H](CCCCN)C(=O)N[C@H](C(=O)N[C@H](CCCCN)C(=O)N[C@@H](CCCCN)C(=O)N[C@@H](CC(C)C)C(=O)N[C@@H](CC(C)C)C(=O)N[C@@H](Cc1c[nH]cn1)C(=O)N[C@@H](CCC(=O)O)C(=O)N[C@@H](Cc1ccccc1)C(=O)N[C@@H](CCCCN)C(=O)N[C@@H](CCCCN)C(=O)N[C@@H](Cc1ccccc1)C(N)=O)[C@@H](C)CC [PapMA-19, RWK IFK KIk KLL HEF KKF-NH2] (H-RWKIFKKI[dK]KLLHEFKKF-NH2; N-terminus assumed)
Synergistic effect of antibacterial activity with existing antibiotics compared with PapMA-1 (E. coli [1]; E. coli and MDREC1229): higher level than the PapMA-1 peptide
Antibiotic MIC, Erythromycin (E. coli [1]; erythromycin combined with peptide at 1 μg/ml): 64 mg/L
Antibiotic MIC, Erythromycin (E. coli [1]; erythromycin combined with peptide at 2 μg/ml): 32 mg/L
Antibiotic MIC, Erythromycin (E. coli [1]; erythromycin combined with peptide at 4 μg/ml): 8 mg/L
Antibiotic MIC, Erythromycin (E. coli [1]; erythromycin combined with peptide at 6 μg/ml): 2 mg/L
Antibiotic MIC, Erythromycin (E. coli [1]; erythromycin combined with peptide at 8 μg/ml): 1 mg/L
Antibiotic MIC, Erythromycin (E. coli [1]; erythromycin combined with peptide at 16 μg/ml): 0.25 mg/L
Antibiotic MIC, Erythromycin (E. coli [1]; erythromycin combined with peptide at 32 μg/ml): 0 mg/L
Antibiotic MIC, Erythromycin (E. coli [1]; erythromycin combined with peptide at 64 μg/ml): 0 mg/L
Antibiotic MIC, Linezolid (E. coli [1]; linezolid combined with peptide at 1 μg/ml): >128 mg/L
Antibiotic MIC, Linezolid (E. coli [1]; linezolid combined with peptide at 2 μg/ml): 64 mg/L
Antibiotic MIC, Linezolid (E. coli [1]; linezolid combined with peptide at 4 μg/ml): 32 mg/L
Antibiotic MIC, Linezolid (E. coli [1]; linezolid combined with peptide at 6 μg/ml): 8 mg/L
Antibiotic MIC, Linezolid (E. coli [1]; linezolid combined with peptide at 8 μg/ml): 8 mg/L
Antibiotic MIC, Linezolid (E. coli [1]; linezolid combined with peptide at 16 μg/ml): 4 mg/L
Antibiotic MIC, Linezolid (E. coli [1]; linezolid combined with peptide at 32 μg/ml): 0 mg/L
Antibiotic MIC, Linezolid (E. coli [1]; linezolid combined with peptide at 64 μg/ml): 0 mg/L
Antibiotic MIC, Vancomycin (E. coli [1]; vancomycin combined with peptide at 1 μg/ml): >128 mg/L
Antibiotic MIC, Vancomycin (E. coli [1]; vancomycin combined with peptide at 2 μg/ml): 128 mg/L
Antibiotic MIC, Vancomycin (E. coli [1]; vancomycin combined with peptide at 4 μg/ml): 64 mg/L
Antibiotic MIC, Vancomycin (E. coli [1]; vancomycin combined with peptide at 6 μg/ml): 8 mg/L
Antibiotic MIC, Vancomycin (E. coli [1]; vancomycin combined with peptide at 8 μg/ml): 8 mg/L
Antibiotic MIC, Vancomycin (E. coli [1]; vancomycin combined with peptide at 16 μg/ml): 4 mg/L
Antibiotic MIC, Vancomycin (E. coli [1]; vancomycin combined with peptide at 32 μg/ml): 0 mg/L
Antibiotic MIC, Vancomycin (E. coli [1]; vancomycin combined with peptide at 64 μg/ml): 0 mg/L
Minimal inhibitory concentration MIC (B. subtilis): >128 mg/L
Minimal inhibitory concentration MIC (S. epidermidis): >128 mg/L
Minimal inhibitory concentration MIC (MRSA 3114): >128 mg/L
Minimal inhibitory concentration MIC (MRSA 3126): >128 mg/L
Minimal inhibitory concentration MIC (S. aureus): >128 mg/L
Minimal inhibitory concentration MIC (P. aeruginosa): 64 mg/L (≈ 26.5 µM)
Minimal inhibitory concentration MIC (MDREC 1229 [2]): 32 mg/L (≈ 13.2 µM)
Peptide MIC, peptide alone (MDREC 1229 [2]): 32 mg/L
Minimal inhibitory concentration MIC (E. coli [3]): 32 mg/L (≈ 13.2 µM)
Minimal inhibitory concentration MIC (MDRPA 2003): 64 mg/L (≈ 26.5 µM)
Minimal inhibitory concentration MIC (MDRPA 2002): 64 mg/L (≈ 26.5 µM)
Erythromycin MIC during combined treatment with peptide (MDRAB 12035; [5]): 32 mg/L
Linezolid MIC during combined treatment with peptide (MDRAB 12035; [5]): >128 mg/L
Vancomycin MIC during combined treatment with peptide (MDRAB 12035; [5]): >128 mg/L
Erythromycin MIC during combined treatment with peptide (MDRAB 12035; [6]): 16 mg/L
Linezolid MIC during combined treatment with peptide (MDRAB 12035; [6]): 128 mg/L
Vancomycin MIC during combined treatment with peptide (MDRAB 12035; [6]): 128 mg/L
Erythromycin MIC during combined treatment with peptide (MDRAB 12035; [7]): 8 mg/L
Linezolid MIC during combined treatment with peptide (MDRAB 12035; [7]): 64 mg/L
Vancomycin MIC during combined treatment with peptide (MDRAB 12035; [7]): 64 mg/L
Erythromycin MIC during combined treatment with peptide (MDRAB 12035; [8]): 2 mg/L
Linezolid MIC during combined treatment with peptide (MDRAB 12035; [8]): 16 mg/L
Vancomycin MIC during combined treatment with peptide (MDRAB 12035; [8]): 32 mg/L
Erythromycin MIC during combined treatment with peptide (MDRAB 12035; [9]): 0.5 mg/L
Linezolid MIC during combined treatment with peptide (MDRAB 12035; [9]): 8 mg/L
Vancomycin MIC during combined treatment with peptide (MDRAB 12035; [9]): 16 mg/L
Erythromycin MIC during combined treatment with peptide (MDRAB 12035; [10]): 0.125 mg/L
Linezolid MIC during combined treatment with peptide (MDRAB 12035; [10]): 4 mg/L
Vancomycin MIC during combined treatment with peptide (MDRAB 12035; [10]): 8 mg/L
Erythromycin MIC during combined treatment with peptide (MDRAB 12035; [11]): 0 mg/L
Linezolid MIC during combined treatment with peptide (MDRAB 12035; [11]): 0 mg/L
Vancomycin MIC during combined treatment with peptide (MDRAB 12035; [11]): 0 mg/L
Erythromycin MIC during combined treatment with peptide (MDRAB 12035; [12]): 0 mg/L
Linezolid MIC during combined treatment with peptide (MDRAB 12035; [12]): 0 mg/L
Vancomycin MIC during combined treatment with peptide (MDRAB 12035; [12]): 0 mg/L
Minimal inhibitory concentration MIC (MDREC 1238): 32 mg/L (≈ 13.2 µM)
Minimal inhibitory concentration MIC (MDRST 8007): 64 mg/L (≈ 26.5 µM)
Antibiotic MIC, Erythromycin (MDREC 1229 [4]; [5]): 128 mg/L
Antibiotic MIC, Linezolid (MDREC 1229 [4]; [5]): >128 mg/L
Antibiotic MIC, Vancomycin (MDREC 1229 [4]; [5]): >128 mg/L
Antibiotic MIC, Erythromycin (MDREC 1229 [4]; [6]): 32 mg/L
Antibiotic MIC, Linezolid (MDREC 1229 [4]; [6]): 128 mg/L
Antibiotic MIC, Vancomycin (MDREC 1229 [4]; [6]): 128 mg/L
Antibiotic MIC, Erythromycin (MDREC 1229 [4]; [7]): 8 mg/L
Antibiotic MIC, Linezolid (MDREC 1229 [4]; [7]): 32 mg/L
Antibiotic MIC, Vancomycin (MDREC 1229 [4]; [7]): 64 mg/L
Antibiotic MIC, Erythromycin (MDREC 1229 [4]; [8]): 2 mg/L
Antibiotic MIC, Linezolid (MDREC 1229 [4]; [8]): 16 mg/L
Antibiotic MIC, Vancomycin (MDREC 1229 [4]; [8]): 8 mg/L
Antibiotic MIC, Erythromycin (MDREC 1229 [4]; [9]): 1 mg/L
Antibiotic MIC, Linezolid (MDREC 1229 [4]; [9]): 16 mg/L
Antibiotic MIC, Vancomycin (MDREC 1229 [4]; [9]): 8 mg/L
Antibiotic MIC, Erythromycin (MDREC 1229 [4]; [10]): 0.5 mg/L
Antibiotic MIC, Linezolid (MDREC 1229 [4]; [10]): 4 mg/L
Antibiotic MIC, Vancomycin (MDREC 1229 [4]; [10]): 4 mg/L
Antibiotic MIC, Erythromycin (MDREC 1229 [4]; [11]): 0 mg/L
Antibiotic MIC, Linezolid (MDREC 1229 [4]; [11]): 0 mg/L
Antibiotic MIC, Vancomycin (MDREC 1229 [4]; [11]): 0 mg/L
Antibiotic MIC, Erythromycin (MDREC 1229 [4]; [12]): 0 mg/L
Antibiotic MIC, Linezolid (MDREC 1229 [4]; [12]): 0 mg/L
Antibiotic MIC, Vancomycin (MDREC 1229 [4]; [12]): 0 mg/L
Synergistic effect of antibacterial activity with existing antibiotics compared with PapMA-1 (A. baumannii; A. baumannii and MDRAB 12035): higher level than the PapMA-1 peptide
Antibiotic MIC, Erythromycin (A. baumannii; [13]): 32 mg/L
Antibiotic MIC, Linezolid (A. baumannii; [13]): >128 mg/L
Antibiotic MIC, Vancomycin (A. baumannii; [13]): >128 mg/L
Antibiotic MIC, Erythromycin (A. baumannii; [14]): 16 mg/L
Antibiotic MIC, Linezolid (A. baumannii; [14]): 64 mg/L
Antibiotic MIC, Vancomycin (A. baumannii; [14]): 128 mg/L
Antibiotic MIC, Erythromycin (A. baumannii; [15]): 4 mg/L
Antibiotic MIC, Linezolid (A. baumannii; [15]): 16 mg/L
Antibiotic MIC, Vancomycin (A. baumannii; [15]): 32 mg/L
Antibiotic MIC, Erythromycin (A. baumannii; [16]): 2 mg/L
Antibiotic MIC, Linezolid (A. baumannii; [16]): 8 mg/L
Antibiotic MIC, Vancomycin (A. baumannii; [16]): 8 mg/L
Antibiotic MIC, Erythromycin (A. baumannii; [17]): 0.25 mg/L
Antibiotic MIC, Linezolid (A. baumannii; [17]): 4 mg/L
Antibiotic MIC, Vancomycin (A. baumannii; [17]): 4 mg/L
Antibiotic MIC, Erythromycin (A. baumannii; [18]): 0 mg/L
Antibiotic MIC, Linezolid (A. baumannii; [18]): 0 mg/L
Antibiotic MIC, Vancomycin (A. baumannii; [18]): 0 mg/L
Antibiotic MIC, Erythromycin (A. baumannii; [19]): 0 mg/L
Antibiotic MIC, Linezolid (A. baumannii; [19]): 0 mg/L
Antibiotic MIC, Vancomycin (A. baumannii; [19]): 0 mg/L
Antibiotic MIC, Erythromycin (A. baumannii; [20]): 0 mg/L
Antibiotic MIC, Linezolid (A. baumannii; [20]): 0 mg/L
Antibiotic MIC, Vancomycin (A. baumannii; [20]): 0 mg/L
